Where a name gives a salt, the structure may show the parent alone.
Experiments:
[1] = PAMPA, pH 7.4
From the text: The blood brain permeability was expressed as permeability coefficient, P (10-6 cm/s) and −log Pe.

[2] = in vivo PET imaging in mice (Example 1), brain uptake; settings: mouse brain
Protocol: Initial in vivo study in mouse model: Initial in vivo PET imaging studies were conducted in mice at different time points. The uptake of the [^18F]CNPIFE (28) probe is expressed as a standard uptake value (SUV).
In vivo study in mouse model: In vivo PET imaging studies were conducted in mice at different time points to compare the SUV for [^18F]—CNBI (4) and [^18F]CNPIFE (28).

[3] = serum stability by rad-TLC, mouse serum; type: in vitro ADME; settings: 37° C., up to 120 min
Protocol: (§1) The stability of both the probes in mouse and human serums was also measured along with a control at 0 min, 30 min, 60 min, and 120 min using rad-TLC as discussed later below. It was observed that [^18F]F-CNBI was stable >92% up to 120 min.
(§2) Serum Stability Analysis: Stability analysis of [^18F]F-CNBI and [^18F]F-CNPIFE were assessed in human and mouse serums. To perform this stability assay, 100 μL of [^18F]F-CNBI (˜0.74 MBq) or 100 μL of [^18F]F-CNPIFE (˜3.70 MBq) was added to 100 μL of human or mouse serum in a microcentrifuge tube. The resultant mixture of radiotracer and serum was incubated at 37° C. for 120 min. To assess the stability of the probes, a small aliquot (˜0.5 μL) was taken out from the mixture in duplicate at 0 min, 30 min, 60 min and 120 min during incubation, and analyzed on a rad-TLC using 1:9 methanol: chloroform as a mobile phase using i-TLC to estimate the radio-stability of [^18F]F-CNBI or [^18F]F-CNPIFE at different time points post-incubation. For control, 100 μL of [^18F]F-CNBI (˜0.74 MBq) was taken in a microcentrifuge without dilution or 100 μL of [^18F]F-CNPIFE (˜3.70 MBq) was added to 100 μL deionized water in a microcentrifuge tube. Both the controls, were incubated at 25° C. for 120 min. At 0 min, 30 min, 60 min and 120 min during incubation, small aliquot (˜0.5 μL) was taken from the controls in duplicate and rad-TLC was performed as mentioned above. […]

[4] = serum stability by rad-TLC, human serum; type: in vitro ADME; settings: 37° C., up to 120 min
Protocol: as §1, §2

[5] = dynamic micro-PET imaging and biodistribution in normal FVB/NJ mice with and without self-blocking; type: in vivo, mouse; settings: for effect of co-administration of the reference compound on brain uptake: self-blocking study
Protocol: To pursue this, [^18F]F-CNBI and [^18F]F-CNPIFE were evaluated in the normal FVB/NJ mouse model.
The uptake of [^18F]F-CNPIFE (SUV=0.48±0.09; n=5) in brain was 2.5-fold higher than [^18F]F-CNBI (SUV=0.19±0.06; n=6) as early as 5 min post-injection. This difference increased with time: 4.8-fold higher SUV for [^18F]F-CNPIFE (SUV=0.48±0.11; n=5) as compared to [^18F]F-CNBI (SUV=0.10±0.01; n=6) at 15 min which further increased to 9.5-fold difference at 30 min (see FIG. 21). […] The differences in uptakes of [^18F]F-CNPIFE and [^18F]F-CNBI in the brain and liver likely relate to the difference in their chemical structures (compounds 4 and 28). Greater accumulation of [^18F]F-CNPIFE in the brain relative to [^18F]F-CNBI was consistent with its higher BBB permeability value indicated by the PAMPA assay (see Table 1).
To further understand the characteristics of the uptake of these PET probes in the brain, self-blocking studies with corresponding non-radiolabeled reference compounds were performed. In general, co-administration of [^18F]F-CNBI and [^18F]F-CNPIFE with their corresponding reference compounds, [^19F]F-CNBI and [^19F]F-CNPIFE, respectively, were expected to decrease the uptake of radiotracers in the brain. […] However, a non-significant trend in increase in brain uptake of [^18F]F-CNPIFE can be noticed on coadministration of nonradioactive [^19F]F-CNPIFE with the PET probe [^18F]F-CNPIFE. […] We hypothesize that enhanced brain uptake with additional administration of nonradioactive form of the tracer could be attributed to the binding of [^19F]F-CNBI with normally expressed GSK-3α/β in extremities and allowing relatively greater levels of [^18F]F-CNBI to be taken up by the brain as a peripheral effect.
In vivo study: Biodistribution of [^18F]F-CNBI and [^18F]F-CNPIFE were assessed in brain and in liver of normal FVB/NJ mice (The Jackson Laboratory, Bar Harbor, ME) with and without co administration of unlabeled reference compounds [^19F]F-CNBI (200 μg and 300 μg) and [^19F]F-CNPIFE (25 μg) in separate groups of animals. Stock solutions of [^19F]F-CNPIFE (26 mM) and [^19F]F-CNBI (25 mM) were prepared in the dimethyl sulfoxide (DMSO). For blocking studies with [^19F]F-CNBI, 200 μg (530.5 nmol) or 300 μg (795.8 nmol) of [^19F]F-CNBI (nonradioactive reference compound) was added to the PET probe [^18F]F-CNBI self-containing ˜9.3 nmol [^19F]F-CNBI in the final formulation volume of ˜100 μL. For blocking with [^19F]F-CNPIFE, 25 μg (59 nmol) of [^19F]F-CNPIFE was added to the PET probe [^18F]F-CNPIFE self-containing to 0.8-1.0 nmol of [^19F]F-CNPIFE in the final formulation volume of ˜100 μL. The final formulation containing both PET probes and their nonradioactive reference compounds were prepared in 0.9% saline isotonic solution before tail vein injection. Immediately after the tail vein injection of the radiotracers, animals were subjected to a dynamic micro-PET imaging for 30 min using a small animal micro-PET/X-ray system (Sofie BioSystems Genesys4, Culver City, CA, USA). The PET images were visualized and analyzed using image analysis software, Amide's a Medical Image Data Examiner—AMIDE [Ref. 29]. PET images at 5 min, 10 min, 15 min, 20 min, 25 min, and 30 min post-injection were normalized to the standardized uptake value (SUV), where SUV=(Concentration of dose in tissue (μCi/g)/(Injected dose (μCi)/Weight of the animal (g)) and presented as coronal, transverse and sagittal sectional image.

[6] = system: various tau isoforms and other proteins involved in neurodegeneration; experiment: affinity towards tau isoforms and other proteins involved in neurodegeneration; type: binding
Protocol: The affinity of [^18F]CNPIFE (28) towards various tau isoforms and other proteins involved in neurodegeneration was measured.

GSK-3 = experiment: binding affinity comparison with previous compounds, isoform not stated; type: biochemical; settings: relative to [18F]CNBI (4)
Protocol: The inhibitory effect of [^18F]—CNBI (4) and [^18F]—CNPI (25) (as synthesized as described above) and [^18F]CNPIFE (28) (as synthesized as shown in FIG. 10) on kinase activity was measured. […] Determination of IC50 was determined as follows. The phosphorylation of glycogen synthase substrate by human glycogen synthase kinase α (GSK-3α) or human glycogen synthase kinase β (GSK-3β) was performed using human GSK-3α/β Kinase Enzyme Assay System (Promega Corporation, Madison, WI) in the presence of GSK-3α/β probes (0-400 nM). The phosphorylation of glycogen synthase substrate was quantified using ADP-Glo™ Kinase assay system (Promega Corporation, Madison, WI). IC50 of GSK-3α/β probes was determined from resulting dose response curve and IC50 curve fitting tool of GraphPad Prism 10 (GraphPad Software, San Diego, CA). (See Stein et al., “Comparison of [^18F]F-CNBI and [^18F]F-CNPIFE as Positron Emission Tomography Probes for Noninvasive Imaging of Glycogen Synthase Kinase-3 in Normal Mice”, Eur. J. Org. Chem. 2022).
It can be seen that [^18F]CNPIFE (28) has better purity (about 99% purity), better binding affinity (6×), and better blood brain barrier permeability (6×) compared to previous compounds such as [^18F]CNBI (4). The standard uptake is very close to 1, and to the gold standard value for [N-Methyl-^11C]2-(4′-methylaminophenyl)-6-hydroxybenzothiazole also known as [^11C] […]

[7] = FVB/NJ mice, 5 min post-injection
[8] = FVB/NJ mice, 15 min post-injection
[9] = FVB/NJ mice, 30 min post-injection, without coadministration of reference compound

Row | Permeability coefficient, P (10^−6 cm/s) Average ± SD [1] | fold difference of brain uptake with blocking (coadministration of [19F]F-CNBI) ([5]; 30 min post-injection, 200-300 μg [19F]F-CNBI) | brain uptake (SUV) ([5]; 30 min post-injection, co-injected with 300 μg [19F]F-CNBI) | brain uptake (SUV) ([5]; 30 min post-injection, coadministration of 200 μg [19F]F-CNBI) | liver uptake (SUV) ([5]; co-injected with 200 μg [19F]F-CNBI) | liver uptake (SUV) ([5]; co-injected with 300 μg [19F]F-CNBI) | liver uptake (SUV) ([5]; same animals as brain 30 min, without coadministration of [19F]F-CNBI) | SMILES | uptake in the brain (SUV) [2] | stability in mouse serum [3] | stability in human serum [4] | brain uptake (SUV) [5, 7] | brain uptake (SUV) [5, 8] | brain uptake (SUV) [5, 9] | effect of co-administration of the reference compound on brain uptake [5] | binding with various tau isoforms and other proteins involved in neurodegeneration [6] | better binding affinity compared to previous compounds such as [18F]CNBI (4) (GSK-3) | brain uptake, fold higher than [18F]F-CNBI ([5]; 5 min post-injection) | brain uptake, fold higher than [18F]F-CNBI ([5]; 15 min post-injection) | brain uptake, fold higher than [18F]F-CNBI ([5]; 30 min post-injection) | brain uptake (SUV) ([5]; 30 min post-injection, coadministration of 25 μg [19F]F-CNPIFE)
1 | 32±1 10^−6 cm/s |  |  |  |  |  |  | CC(C)NCC(O)COc1cccc2ccccc12 (stereo not drawn) [Propranolol HCl] |  |  |  |  |  |  |  |  |  |  |  |  | 
2 |  | 2.5-3.0 fold | 0.24±0.01 SUV | 0.20±0.01 SUV | 4.93±0.52 SUV | 3.89±0.60 SUV | 10.15±2.87 SUV | O=C(Nc1cnccc1-c1ccc([18F])nc1)c1ccnc(NC(=O)C2CC2)c1 [[^18F]F-CNBI, 2-(cyclopropanecarboxamido)-N-(6-(fluoro-^18F)-[3,4′-bipyridin]-3′-yl)isonicotinamide] | 0.4 SUV | > 92% | > 92% | 0.19±0.06 SUV | 0.10±0.01 SUV | 0.08±0.005 SUV | significant increase |  |  |  |  |  | 
3 |  |  |  |  |  |  |  | O=C(Nc1cnccc1-c1ccc(OCC[18F])cc1)c1ccnc(NC(=O)C2CC2)c1 [[^18F]F-CNPIFE] | 0.9 SUV | > 83% | > 83% | 0.48±0.09 SUV | 0.48±0.11 SUV | 0.76±0.16 SUV | no significant difference | no to minimum binding | 6 × | 2.5 fold | 4.8 fold | 9.5 fold | 0.88±0.14 SUV
